The test system of data set [1] is MDAMB231 breast cancer cell line. Put plainly: MTT cytotoxicity, breast cancer cell line. Conditions: 95% confidence interval in brackets. Format: cell-based. On the procedure: (§1) The 4-oxoquinoline-3-carboxamide derivatives (0.3125–20 μM) were tested for cytotoxic activity against three cancer cell lines: HCT-116 (colon), ACP03 (gastric), and MDAMB-231 (breast) (Table 1). Active derivatives were also tested against a normal fibroblast cell line (MRC-5). All cell lines were maintained in DMEM medium supplemented with 10% fetal bovine serum, 2 mM glutamine, 100 U/mL penicillin, and 100 µg/mL streptomycin and were incubated at 37 °C with 5% CO2. Each derivative was dissolved with DMSO to a concentration of 10 mM. The final concentration of DMSO in the culture medium was kept at a constant value below 0.1% (v/v). The derivatives (0.3125–20 µM) were incubated with the cells for 72 h. The negative control contained the same amount of DMSO ([…]). Cell viability was determined by the reduction of the yellow dye 3-(4,5-dimethyl-2-thiazol)-2,5-diphenyl-2H-tetrazolium bromide (MTT) to a blue formazan product as described by Mosmann.
(§2) In the MTT experiments, the results were analyzed according to their means and standard errors in the program GraphPad Prism. Each sample was analyzed in triplicate.

The subject of data set [2] is HCT-116 colon cancer cell line. The data set can be described thus: MTT cytotoxicity, colon cancer cell line. Conditions: 95% confidence interval in brackets. Format: cell-based. Here is the method: as §1, §2
The subject of data set [3] is ACP-03 (ACP03) gastric cancer cell line. Put plainly: MTT cytotoxicity, gastric cancer cell line. It counts as cell-based. Conditions: for IC50: gastric cancer cell line, MTT, 72 h, 95% confidence interval in brackets. On the procedure: as §1, §2
In data set [4] the test system is MRC5 normal human fetal lung fibroblast. The data set can be described thus: MTT cytotoxicity, normal fibroblast cell line. It counts as cell-based. Conditions: for cytotoxicity in normal fibroblasts: at 20 µM, MRC-5; for IC50: normal human fetal lung fibroblast, MTT, 72 h, 95% confidence interval in brackets. On the procedure: as §1, §2
Data set [5] deals with mouse erythrocytes. The data set can be described thus: Hemolytic assay (cell membrane disruption). It counts as cell-based. Conditions: result in words. On the procedure: (§3) The assay was performed in 96-well plates using a 2% mouse erythrocyte suspension in 0.85% NaCl containing 10 mM CaCl2. Derivatives 10–18, diluted as described above, were tested at 250 µg/mL. After incubation at room temperature for 1 h and centrifugation, the supernatant was removed, and the liberated hemoglobin was measured spectrophotometrically at 540 nm. DMSO was used as a negative control, and Triton X-100 (1%) was used as a positive control.

The target of data set [6] is T1, Human topoisomerase IIα (TopoIIα) (Homo sapiens, UniProt P11388).
T1 construct: purchased TopoGEN, Inc. (Columbus, OH, USA)
T1 sequence (P11388 whole entry): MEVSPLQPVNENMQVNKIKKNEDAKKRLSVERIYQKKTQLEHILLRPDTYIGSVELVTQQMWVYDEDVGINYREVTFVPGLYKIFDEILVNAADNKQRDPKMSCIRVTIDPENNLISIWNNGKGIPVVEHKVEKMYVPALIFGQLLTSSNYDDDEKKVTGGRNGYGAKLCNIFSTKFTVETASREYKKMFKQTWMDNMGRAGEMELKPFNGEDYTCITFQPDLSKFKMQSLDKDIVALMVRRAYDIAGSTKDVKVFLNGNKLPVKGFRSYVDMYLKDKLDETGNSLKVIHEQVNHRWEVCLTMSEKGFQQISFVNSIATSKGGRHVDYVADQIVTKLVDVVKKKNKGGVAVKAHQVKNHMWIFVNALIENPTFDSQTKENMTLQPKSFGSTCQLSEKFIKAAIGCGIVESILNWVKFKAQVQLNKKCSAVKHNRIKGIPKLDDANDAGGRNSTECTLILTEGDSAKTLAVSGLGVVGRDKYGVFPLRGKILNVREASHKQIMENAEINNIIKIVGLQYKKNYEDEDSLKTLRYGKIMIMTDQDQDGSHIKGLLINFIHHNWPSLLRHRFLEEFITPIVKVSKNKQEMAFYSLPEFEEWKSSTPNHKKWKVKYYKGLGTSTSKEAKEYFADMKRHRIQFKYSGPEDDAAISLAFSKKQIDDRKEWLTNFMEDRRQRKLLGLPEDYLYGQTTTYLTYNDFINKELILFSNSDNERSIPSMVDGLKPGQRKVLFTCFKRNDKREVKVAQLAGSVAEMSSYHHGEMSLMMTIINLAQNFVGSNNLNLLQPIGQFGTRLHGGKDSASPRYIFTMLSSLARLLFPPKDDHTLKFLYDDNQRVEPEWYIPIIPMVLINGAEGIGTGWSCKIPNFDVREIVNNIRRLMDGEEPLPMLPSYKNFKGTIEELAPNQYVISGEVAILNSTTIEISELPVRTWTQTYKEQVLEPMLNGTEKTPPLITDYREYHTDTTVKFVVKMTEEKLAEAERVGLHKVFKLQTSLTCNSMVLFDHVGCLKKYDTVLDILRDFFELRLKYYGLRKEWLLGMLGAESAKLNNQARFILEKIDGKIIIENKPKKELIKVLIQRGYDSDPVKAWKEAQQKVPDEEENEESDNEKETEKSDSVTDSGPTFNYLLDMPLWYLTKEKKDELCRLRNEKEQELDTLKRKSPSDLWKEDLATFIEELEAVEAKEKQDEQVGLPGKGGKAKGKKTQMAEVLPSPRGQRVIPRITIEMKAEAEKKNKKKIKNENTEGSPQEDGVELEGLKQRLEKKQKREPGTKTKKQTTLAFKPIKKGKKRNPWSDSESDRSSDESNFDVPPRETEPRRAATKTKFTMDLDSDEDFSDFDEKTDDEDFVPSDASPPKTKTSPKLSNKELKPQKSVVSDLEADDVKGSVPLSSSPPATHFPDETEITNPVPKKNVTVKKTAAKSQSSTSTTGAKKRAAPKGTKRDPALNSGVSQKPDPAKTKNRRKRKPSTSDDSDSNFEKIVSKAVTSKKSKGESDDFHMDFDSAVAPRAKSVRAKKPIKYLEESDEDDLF
The data set can be described thus: DNA relaxation assay (Topoisomerase II Drug Screening Kit). It counts as biochemical. Conditions: 100 µM compound, 10 U enzyme, 37 °C, 30 min, agarose gel. On the procedure:
Human topoisomerase IIα (TopoIIα) was obtained from TopoGEN, Inc. (Columbus, OH, USA). Proteinase K from Tritirachium album was obtained from Sigma-Aldrich, Inc. (St. Louis, MO, USA) and was dissolved in DNase free water. A TAE gel electrophoresis buffer was used in this assay.
The inhibitory effects of the derivatives on human TopoIIα were measured using a Eukaryotic Topoisomerase II Drug Screening Kit (TopoGEN, Inc.). All derivatives were dissolved in DMSO immediately prior to testing.
The substances were tested at a fixed concentration of 0.1 mM. […] Supercoiled plasmid DNA (pRYG, 200 ng) was incubated with human TopoIIα (10 U) at 37 °C for 30 min in relaxation buffers in the absence or presence of derivatives (final volume is 20 μL). The order of reagent addition was buffer, test derivative, Topo IIα and finally DNA.
The assay samples were analyzed by electrophoresis on a 1% agarose gel without EtdBr (25 V, 18 h, room temperature) in TAE buffer, followed by staining in 0.5 μg/mL of EtdBr to allow for observation of the DNA bands under UV light.

Data set [7] is described as follows: Hemolytic assay (cell membrane disruption). Format: cell-based, mouse. Conditions: 2% mouse erythrocyte suspension, 1 h, room temperature; read-out: Hemolysis (EC50). On the procedure: as §3

In the case of `COc1ccc(NC(=O)c2c[nH]c3cc(Cl)ccc3c2=O)cc1` [Derivative 14b, 7-Chloro-4-oxo-N'-(4-methoxyphenyl)-1,4-dihydroquinoline-3-carboxamide], the IC50 in data set [1] (72 h) and in data set [2] (72 h) was greater than 10 µM throughout.
As for `Cc1ccc(NC(=O)c2c[nH]c3ccc(Cl)cc3c2=O)cc1` [Derivative 16b, 6-Chloro-4-oxo-N'-(p-tolyl)-1,4-dihydroquinoline-3-carboxamide], the IC50 in data set [3] is 1.92 µM; in data set [4], greater than 20 µM; in data set [1] (72 h), greater than 10 µM; in data set [2] (72 h), greater than 10 µM. For the same compound, the “cytotoxicity in normal fibroblasts” value in data set [4] is recorded as “did not display cytotoxicity”. The “hemolytical activity against blood cells” value in data set [5] is reported as “no hemolytical activity”. In data set [6], the “inhibition of supercoiled DNA (pRYG) relaxation by topoisomerase II” value is “only the SC band is observed, which indicates topoisomerase inhibition”.
In the case of `Cc1ccc(NC(=O)c2c[nH]c3ccccc3c2=O)cc1` [Derivative 16a, 4-Oxo-N'-(p-tolyl)-1,4-dihydroquinoline-3-carboxamide], the IC50 in data set [1] (72 h) and in data set [2] (72 h) was greater than 10 µM each time.
For the compound `O=C(Nc1ccccc1)c1c[nH]c2cc(Cl)ccc2c1=O` [Derivative 15c, 7-Chloro-4-oxo-N'-phenyl-1,4-dihydroquinoline-3-carboxamide], the IC50 in data set [1] (72 h) and in data set [2] (72 h) was greater than 10 µM each time.
In the case of `O=C(Nc1cc(Cl)ccc1Cl)c1c[nH]c2ccc(Cl)cc2c1=O` [Derivative 17b, 6-Chloro-4-oxo-N'-(2,5-dichlorophenyl)-1,4-dihydroquinoline-3-carboxamide], the IC50 in data set [3] was 5.18 µM; in data set [4], greater than 20 µM; in data set [1] (72 h) it was greater than 10 µM; in data set [2] (72 h), greater than 10 µM. In data set [4], the “cytotoxicity in normal fibroblasts” value is on record as “did not display cytotoxicity”. Also, the “hemolytical activity against blood cells” value in data set [5] is “no hemolytical activity”. Moreover, the “inhibition of supercoiled DNA (pRYG) relaxation by topoisomerase II” value in data set [6] is given as “only the SC band is observed, which indicates topoisomerase inhibition”.
In the case of `COc1ccc(NC(=O)c2c[nH]c3ccccc3c2=O)cc1` [Derivative 14a, 4-oxo-N'-(4-Methoxyphenyl)-1,4-dihydroquinoline-3-carboxamide], the IC50 in data set [1] (72 h) and in data set [2] (72 h) was greater than 10 µM each time.
As to `O=C(NC1CCCCC1)c1c[nH]c2ccccc2c1=O` [Derivative 11a, 4-Oxo-N'-cyclohexyl-1,4-dihydroquinoline-3-carboxamide], the IC50 in data set [1] (72 h) and in data set [2] (72 h) was greater than 10 µM each time.
For the compound `O=C(Nc1ccc(F)cc1)c1c[nH]c2cc(Cl)ccc2c1=O` [Derivative 13b, 7-Chloro-4-oxo-N'-(4-fluorphenyl)-1,4-dihydroquinoline-3-carboxamide], the IC50 in data set [1] (72 h) and in data set [2] (72 h) was greater than 10 µM throughout.
As to `COc1ccc(OC)c(NC(=O)c2c[nH]c3ccc(Cl)cc3c2=O)c1` [Derivative 18b, 6-Chloro-4-oxo-N'-(2,5-dimethoxyphenyl)-1,4-dihydroquinoline-3-carboxamide], the IC50 in data set [1] (72 h) and in data set [2] (72 h) was greater than 10 µM each time.
Consider `O=C(Nc1ccc(Cl)cc1)c1c[nH]c2ccc(Cl)cc2c1=O` [Derivative 12b, 6-Chloro-4-oxo-N'-(4-chlorophenyl)-1,4-dihydroquinoline-3-carboxamide], for which the IC50 in data set [1] (72 h) and in data set [2] (72 h) was greater than 10 µM throughout.
As to `Cc1ccc(NC(=O)c2c[nH]c3cc(Cl)ccc3c2=O)cc1` [Derivative 16c, 7-Chloro-4-oxo-N'-(p-tolyl)-1,4-dihydroquinoline-3-carboxamide], the IC50 in data set [1] (72 h) and in data set [2] (72 h) was greater than 10 µM in each case.
With `O=C(Nc1ccc(Cl)cc1)c1c[nH]c2ccccc2c1=O` [Derivative 12a, 4-oxo-N'-(4-Chlorophenyl)-1,4-dihydroquinoline-3-carboxamide], the IC50 in data set [1] (72 h) and in data set [2] (72 h) was greater than 10 µM throughout.
In the case of `O=C(Nc1ccccc1)c1c[nH]c2ccc(Cl)cc2c1=O` [Derivative 15b, 6-Chloro-4-oxo-N'-phenyl-1,4-dihydroquinoline-3-carboxamide], the IC50 in data set [1] (72 h) and in data set [2] (72 h) was greater than 10 µM each time.
As for `O=C(NCc1ccc(Cl)cc1)c1c[nH]c2ccccc2c1=O` [Derivative 10a, 4-Oxo-N'-(4-chlorobenzyl)-1,4-dihydroquinoline-3-carboxamide], the IC50 in data set [1] (72 h) and in data set [2] (72 h) was greater than 10 µM throughout.
As for `O=C(NC1CCCCC1)c1c[nH]c2ccc(Cl)cc2c1=O` [Derivative 11b, 6-Chloro-4-oxo-N'-cyclohexyl-1,4-dihydroquinoline-3-carboxamide], the IC50 in data set [1] (72 h) and in data set [2] (72 h) was greater than 10 µM in each case.
For `O=C(Nc1cc(Cl)ccc1Cl)c1c[nH]c2ccccc2c1=O` [Derivative 17a, 4-Oxo-N'-(2,5-dichlorophenyl)-1,4-dihydroquinoline-3-carboxamide], the IC50 in data set [1] (72 h) and in data set [2] (72 h) was greater than 10 µM each time.
For `O=C(NCc1ccc(Cl)cc1)c1c[nH]c2ccc(Cl)cc2c1=O` [Derivative 10b, 6-Chloro-4-oxo-N'-(4-chlorobenzyl)-1,4-dihydroquinoline-3-carboxamide], the IC50 in data set [1] (72 h) and in data set [2] (72 h) was greater than 10 µM throughout.
Consider `O=C(Nc1ccc(F)cc1)c1c[nH]c2ccccc2c1=O` [Derivative 13a, 4-oxo-N'-(4-Fluorophenyl)-1,4-dihydroquinoline-3-carboxamide], for which the IC50 in data set [1] (72 h) and in data set [2] (72 h) was greater than 10 µM in each case.
For `O=C(Nc1cc(Cl)ccc1Cl)c1c[nH]c2cc(Cl)ccc2c1=O` [Derivative 17c, 7-Chloro-4-oxo-N'-(2,5-dichlorophenyl)-1,4-dihydroquinoline-3-carboxamide], the IC50 in data set [1] (72 h) and in data set [2] (72 h) was greater than 10 µM throughout.
As to `COc1cccc2c1C(=O)c1c(O)c3c(c(O)c1C2=O)C[C@@](O)(C(=O)CO)C[C@@H]3O[C@H]1C[C@H](N)[C@H](O)[C@H](C)O1` [DOXORUBICIN, doxorubicin, reference compound], the “selectivity against cancer cells versus normal cells” value in data set [3] (ACP-03 versus MRC-5) is recorded as “no selectivity”. Also, the IC50 in data set [3] stood at 0.274 µM; in data set [4] (MRC5), 0.2 µM; in data set [1] (Homo sapiens, MDA-MB-231, 72 h), 0.43 µM; in data set [2] (Homo sapiens, HCT-116, 72 h) it was 0.1 µM. For the same compound, in data set [7], the EC50 at 1 h is greater than 200 µg/mL.
On to `O=C(Nc1ccccc1)c1c[nH]c2ccccc2c1=O` [Derivative 15a, 4-oxo-N'-Phenyl-1,4-dihydroquinoline-3-carboxamide], for which the IC50 in data set [1] (72 h) and in data set [2] (72 h) was greater than 10 µM each time.
As to `O=C(NC1CCCCC1)c1c[nH]c2cc(Cl)ccc2c1=O` [Derivative 11c, 7-Chloro-4-oxo-N'-cyclohexyl-1,4-dihydroquinoline-3-carboxamide], the IC50 in data set [1] (72 h) and in data set [2] (72 h) was greater than 10 µM throughout.
`O=C(NCc1ccc(Cl)cc1)c1c[nH]c2cc(Cl)ccc2c1=O` [Derivative 10c, 7-Chloro-4-oxo-N'-(4-chlorobenzyl)-1,4-dihydroquinoline-3-carboxamide]: the IC50 in data set [1] (72 h) and in data set [2] (72 h) was greater than 10 µM each time.
Turning to `COc1ccc(OC)c(NC(=O)c2c[nH]c3cc(Cl)ccc3c2=O)c1` [Derivative 18c, 7-Chloro-4-oxo-N'-(2,5-dimethoxyphenyl)-1,4-dihydroquinoline-3-carboxamide], the IC50 in data set [1] (72 h) and in data set [2] (72 h) was greater than 10 µM each time.
As for `COc1ccc(OC)c(NC(=O)c2c[nH]c3ccccc3c2=O)c1` [Derivative 18a, 4-Oxo-N'-(2,5-dimethoxyphenyl)-1,4-dihydroquinoline-3-carboxamide], the 50% inhibitory concentration (IC50) in data set [1] (72 h) and in data set [2] (72 h) was greater than 10 µM throughout.

The term IC50 denotes the point on the concentration scale where inhibition reaches its midpoint. As a reminder, the EC50 is the midpoint of the concentration-response curve.

(Values after article PMC6271384, “Synthesis, Cytotoxicity and Mechanistic Evaluation of 4-Oxoquinoline-3-carboxamide Derivatives: Finding New Potential Anticancer Drugs” (Molecules, 2014).)
